In patent US10975093B2, “Fused 1,4-diazepines as BET protein degraders” (THE REGENTS OF THE UNIVERSITY OF MICHIGAN, priority 2016, dated 2021):

Columns and labels:
MOLM-13 = test: Cell growth inhibition, CellTiter-Glo Luminescent Cell Viability Assay, MOLM-13; type: cell-based; conditions: Homo sapiens, MOLM-13 cells, 4 days incubation
Experimental: (§1) Cell growth inhibitory activity of representative Compounds of the Disclosure was determined in various cell lines using CellTiter-Glo® Luminescent Cell Viability Assay. Cells were seeded in 384-well white opaque cell culture plates at a density of 2,000 cells/well with serially diluted compounds and incubated at 37° C. in an atmosphere of 95% air and 5% CO2 for 4 days. Cell viability was determined using the CellTiter-Glo® Luminescent Cell Viability Assay Kit (Promega, Madison, Wis.) according to the manufacture's instruction. Briefly, a volume of CellTiter-Glo® Reagent equal to the volume of cell culture medium was added to each well, and then the plates were incubated at room temperature for 10-20 minutes. The luminescent signal was measured using a Tecan Infinite M1000 multimode microplate reader (Tecan, Morrisville, N.C.). The half maximal inhibitory concentration (IC50) was calculated using the GraphPad Prism 5 software (GraphPad Software, La Jolla, Calif.).

MDA-MB-231 = test: Cell growth inhibition, CellTiter-Glo Luminescent Cell Viability Assay, MDA-MB-231; type: cell-based; conditions: Homo sapiens, MDA-MB-231 cells, 4 days incubation
Experimental: as §1

IC50 (MOLM-13; MOLM-13, 96 h)	IC50 (MDA-MB-231; MDA-MB-231, 96 h)	SMILES	IC50 (MOLM-13; 96 h)	IC50 (MDA-MB-231; 96 h)
0.24 ± 0.06 nM	1.5 nM	Cc1ncsc1-c1ccc([C@H](C)NC(=O)[C@@H]2C[C@@H](O)CN2C(=O)[C@@H](NC(=O)COCCOCCOCCOCCn2cc(C#Cc3sc4c(c3C)C(c3ccc(Cl)cc3)=N[C@@H](C)c3nnc(C)n3-4)cn2)C(C)(C)C)cc1 [compound 198, (2S,4R)-1-((S)-2-(tert-butyl)-17-(4-(((S)-4-(4-chlorophenyl)-3,6,9-trimethyl-6H-thieno[3,2-f][1,2,4]triazolo[4,3-a][1,4]diazepin-2-yl)ethynyl)-1H-pyrazol-1-yl)-4-oxo-6,9,12,15-tetraoxa-3-azaheptadecanoyl)-4-hydroxy-N-((S)-1-(4-(4-methylthiazol-5-yl)phenyl)ethyl)pyrrolidine-2-carboxamide]	–	–
42.3 nM	93 nM	Cc1ncsc1-c1ccc([C@H](C)NC(=O)[C@@H]2C[C@@](C)(O)CN2C(=O)[C@@H](NC(=O)COCCCn2cc(C#Cc3sc4c(c3C)C(c3ccc(Cl)cc3)=N[C@@H](C)c3nnc(C)n3-4)cn2)C(C)(C)C)cc1 [compound 205, (2S,4R)-1-((S)-2-(2-(3-(4-(((S)-4-(4-chlorophenyl)-3,6,9-trimethyl-6H-thieno[3,2-f][1,2,4]triazolo[4,3-a][1,4]diazepin-2-yl)ethynyl)-1H-pyrazol-1-yl)propoxy)acetamido)-3,3-dimethylbutanoyl)-4-hydroxy-4-methyl-N-((S)-1-(4-(4-methylthiazol-5-yl)phenyl)ethyl)pyrrolidine-2-carboxamide]	–	–
0.2 nM	0.1 nM	Cc1c(C#Cc2cnn(CCCNc3ccc4c(c3)CN(C3CCC(=O)NC3=O)C4=O)c2)sc2c1C(c1ccc(Cl)cc1)=N[C@@H](C)c1nnc(C)n1-2 (stereo partly drawn) [compound 185, 3-(5-((3-(4-(((S)-4-(4-chlorophenyl)-3,6,9-trimethyl-6H-thieno[3,2-f][1,2,4]triazolo[4,3-a][1,4]diazepin-2-yl)ethynyl)-1H-pyrazol-1-yl)propyl)amino)-1-oxoisoindolin-2-yl)piperidine-2,6-dione]	–	–
0.03 nM	0.06 nM	Cc1c(C#Cc2cnn(CCCN3CCC(Nc4cccc5c4CN(C4CCC(=O)NC4=O)C5=O)CC3)c2)sc2c1C(c1ccc(Cl)cc1)=N[C@@H](CC(=O)Nc1ccc(O)cc1)c1nnc(C)n1-2 (stereo partly drawn) [compound 193, 2-((6S)-4-(4-chlorophenyl)-2-((1-(3-(4-((2-(2,6-dioxopiperidin-3-yl)-1-oxoisoindolin-4-yl)amino)piperidin-1-yl)propyl)-1H-pyrazol-4-yl)ethynyl)-3,9-dimethyl-6H-thieno[3,2-f][1,2,4]triazolo[4,3-a][1,4]diazepin-6-yl)-N-(4-hydroxyphenyl)acetamide]	–	–
0.35 nM	1.5 nM	Cc1c(C#Cc2cnn(CCN3CC(CNc4cccc5c4CN(C4CCC(=O)NC4=O)C5=O)C3)c2)sc2c1C(c1ccc(Cl)cc1)=N[C@@H](C)c1nnc(C)n1-2 (stereo partly drawn) [compound 175, 3-(4-(((1-(2-(4-(((S)-4-(4-chlorophenyl)-3,6,9-trimethyl-6H-thieno[3,2-f][1,2,4]triazolo[4,3-a][1,4]diazepin-2-yl)ethynyl)-1H-pyrazol-1-yl)ethyl)azetidin-3-yl)methyl)amino)-1-oxoisoindolin-2-yl)piperidine-2,6-dione]	–	–
> 100 nM	> 100 nM	Cc1c(C#Cc2cnn(CCCn3cnc(COc4cccc5c4C(=O)N(C4CCC(=O)NC4=O)C5=O)c3)c2)sc2c1C(c1ccc(Cl)cc1)=NCc1nnc(C)n1-2 (centres unmarked) [compound 155, 4-((1-(3-(4-((4-(4-chlorophenyl)-3,9-dimethyl-6H-thieno[3,2-f][1,2,4]triazolo[4,3-a][1,4]diazepin-2-yl)ethynyl)-1H-pyrazol-1-yl)propyl)-1H-imidazol-4-yl)methoxy)-2-(2,6-dioxopiperidin-3-yl)isoindoline-1,3-dione]	–	–
6.2 nM	7.2 nM	Cc1c(C#Cc2ccc(CN3CCC(CNc4cccc5c4CN(C4CCC(=O)NC4=O)C5=O)CC3)cn2)sc2c1C(c1ccc(Cl)cc1)=NCc1nnc(C)n1-2 (centres unmarked) [compound 167, 3-(4-(((1-((6-((4-(4-chlorophenyl)-3,9-dimethyl-6H-thieno[3,2-f][1,2,4]triazolo[4,3-a][1,4]diazepin-2-yl)ethynyl)pyridin-3-yl)methyl)piperidin-4-yl)methyl)amino)-1-oxoisoindolin-2-yl)piperidine-2,6-dione]	–	–
1.1 nM	2.5 nM	Cc1c(C#Cc2cnn(CCOCCOCCOCC#Cc3cccc4c3CN(C3CCC(=O)NC3=O)C4=O)c2)sc2c1C(c1ccc(Cl)cc1)=N[C@@H](CC(=O)N1CCN(C)CC1)c1nnc(C)n1-2 (stereo partly drawn) [compound 197, 3-(4-(3-(2-(2-(2-(4-(((S)-4-(4-chlorophenyl)-3,9-dimethyl-6-(2-(4-methylpiperazin-1-yl)-2-oxoethyl)-6H-thieno[3,2-f][1,2,4]triazolo[4,3-a][1,4]diazepin-2-yl)ethynyl)-1H-pyrazol-1-yl)ethoxy)ethoxy)ethoxy)prop-1-yn-1-yl)-1-oxoisoindolin-2-yl)piperidine-2,6-dione]	–	–
0.05 nM	0.1 nM	Cc1c(C#Cc2cnn(CCCN3CCC(Nc4cccc5c4CN(C4CCC(=O)NC4=O)C5=O)CC3)c2)sc2c1C(c1ccc(Cl)cc1)=N[C@@H](CC(N)=O)c1nnc(C)n1-2 (stereo partly drawn) [compound 190, 2-((6S)-4-(4-chlorophenyl)-2-((1-(3-(4-((2-(2,6-dioxopiperidin-3-yl)-1-oxoisoindolin-4-yl)amino)piperidin-1-yl)propyl)-1H-pyrazol-4-yl)ethynyl)-3,9-dimethyl-6H-thieno[3,2-f][1,2,4]triazolo[4,3-a][1,4]diazepin-6-yl)acetamide]	–	–
0.07 nM	0.08 nM	Cc1c(C#Cc2cnn(CCCN3CCC(Nc4cccc5c4CN(C4CCC(=O)NC4=O)C5=O)CC3)c2)sc2c1C(c1ccc(Cl)cc1)=N[C@@H](CC(=O)N1CCN(C)CC1)c1nnc(C)n1-2 (stereo partly drawn) [compound 192, 3-(4-((1-(3-(4-(((S)-4-(4-chlorophenyl)-3,9-dimethyl-6-(2-(4-methylpiperazin-1-yl)-2-oxoethyl)-6H-thieno[3,2-f][1,2,4]triazolo[4,3-a][1,4]diazepin-2-yl)ethynyl)-1H-pyrazol-1-yl)propyl)piperidin-4-yl)amino)-1-oxoisoindolin-2-yl)piperidine-2,6-dione]	–	–
> 100 nM	> 100 nM	Cc1c(C#Cc2cnn(CCn3cnc(COc4cccc5c4C(=O)N(C4CCC(=O)NC4=O)C5=O)c3)c2)sc2c1C(c1ccc(Cl)cc1)=NCc1nnc(C)n1-2 (centres unmarked) [compound 153, 4-((1-(2-(4-((4-(4-chlorophenyl)-3,9-dimethyl-6H-thieno[3,2-f][1,2,4]triazolo[4,3-a][1,4]diazepin-2-yl)ethynyl)-1H-pyrazol-1-yl)ethyl)-1H-imidazol-4-yl)methoxy)-2-(2,6-dioxopiperidin-3-yl)isoindoline-1,3-dione]	–	–
18.6 nM	52.7 nM	Cc1c(C#Cc2cnn(CCCC#Cc3ccc4c(c3)C(=O)N(C3CCC(=O)NC3=O)C4=O)c2)sc2c1C(c1ccc(Cl)cc1)=NCc1nnc(C)n1-2 (centres unmarked) [compound 157, 5-(5-(4-((4-(4-chlorophenyl)-3,9-dimethyl-6H-thieno[3,2-f][1,2,4]triazolo[4,3-a][1,4]diazepin-2-yl)ethynyl)-1H-pyrazolo-1-yl)pent-1-yn-1-yl)-2-(2,6-dioxopiperidin-3-yl)isoindoline-1,3-dione]	–	–
10.3 nM	11.1 nM	Cc1c(C#Cc2ccc(CCCCNc3cccc4c3CN(C3CCC(=O)NC3=O)C4=O)nc2)sc2c1C(c1ccc(Cl)cc1)=NCc1nnc(C)n1-2 (centres unmarked) [Cpd. No. 17, 3-(4-((4-(5-((4-(4-chlorophenyl)-3,9-dimethyl-6H-thieno[3,2-f][1,2,4]triazolo[4,3-a][1,4]diazepin-2-yl)ethynyl)pyridin-2-yl)butyl)amino)-1-oxoisoindolin-2-yl)piperidine-2,6-dione]	–	–
–	–	Cc1c(C#Cc2ccc(OCCC#Cc3cccc4c3CN(C3CCC(=O)NC3=O)C4=O)cn2)sc2c1C(c1ccc(Cl)cc1)=NCc1nnc(C)n1-2 (centres unmarked) [Cpd. No. 15, 3-(4-(4-((6-((4-(4-chlorophenyl)-3,9-dimethyl-6H-thieno[3,2-f][1,2,4]triazolo[4,3-a][1,4]diazepin-2-yl)ethynyl)pyridin-3-yl)oxy)but-1-yn-1-yl)-1-oxoisoindolin-2-yl)piperidine-2,6-dione]	82.6 nM	39.1 nM
0.9 nM	0.6 nM	Cc1c(C#Cc2ccc(CCCC#Cc3cccc4c3CN(C3CCC(=O)NC3=O)C4=O)nc2)sc2c1C(c1ccc(Cl)cc1)=N[C@@H](C)c1nnc(C)n1-2 (stereo partly drawn) [compound 166, 3-(4-(5-(5-(((S)-4-(4-chlorophenyl)-3,6,9-trimethyl-6H-thieno[3,2-f][1,2,4]triazolo[4,3-a][1,4]diazepin-2-yl)ethynyl)pyridin-2-yl)pent-1-yn-1-yl)-1-oxoisoindolin-2-yl)piperidine-2,6-dione]	–	–

SMILES	IC50 (MOLM-13; MOLM-13, 96 h)	IC50 (MDA-MB-231; MDA-MB-231, 96 h)	IC50 (MOLM-13; 96 h)	IC50 (MDA-MB-231; 96 h)
Cc1c(C#Cc2cnn(CCCCOc3cccc4c3CN(C3CCC(=O)NC3=O)C4=O)c2)sc2c1C(c1ccc(Cl)cc1)=NCc1nnc(C)n1-2 (centres unmarked) [compound 146, 3-(4-(4-(4-((4-(4-chlorophenyl)-3,9-dimethyl-6H-thieno[3,2-f][1,2,4]triazolo[4,3-a][1,4]diazepin-2-yl)ethynyl)-1H-pyrazol-1-yl)butoxy)-1-oxoisoindolin-2-yl)piperidine-2,6-dione]	1 nM	1.2 nM	–	–
